According to the supplement of paper PMC10307832:

Each cell line was assayed with CC1=C(C(=NN1)C)CC2=C(C3=C(S2)N(C(=O)N(C3=O)C)CC(C)C)C(=O)N4C[C@@H](CO4)O + Cc1nc(Nc2ncc(C(=O)Nc3c(C)cccc3Cl)s2)cc(N2CCN(CCO)CC2)n1 [Dasatinib] (partner 0.075 µM) (assay: relative viability (nuclei count vs DMSO), 5 days (fraction); higher = more cells survive). Details: first compound 0.0025 µM.
In short: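 Values are medians from duplicate plates. Each reflects relative viability, defined as the nuclei count of treated wells over that of vehicle wells. Lung cancer cell lines in 1536-well plates were pin-tool dosed one day after seeding with one drug alone or with a fixed anchor-drug dose plus five library-drug doses (not always all listed) in √10 steps, then fixed, stained and imaged at 4× after 5 days.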
NCI-H1650 showed a relative viability of 0.425.
Work on NCI-H1993 yielded a relative viability of 0.614.
SW 1573 was tested, and the relative viability was 0.451.
NCI-H838 was tested, and the relative viability was 0.347.
Cell Line LCLC-103H has a relative viability of 0.669.
NCI-H520 gave a relative viability of 0.231.
Cell Line NCI-H2126 has a relative viability of 0.695.
EMC-BAC-2 gave a relative viability of 0.341.
With NCI-H2085 the relative viability was 0.254.
HCC-366 was tested, and the relative viability was 0.601.
NCI-H1666 was tested, and the relative viability was 0.796.
With NCI-H596 the relative viability was 0.586.
Work on LK-2 yielded a relative viability of 0.231.
For NCI-H2087, the relative viability was 0.715.
Cell Line NCI-H2342 has a relative viability of 0.297.
In the case of SK-MES-1, the relative viability is reported as 0.389.
Cell Line H3255 has a relative viability of 0.42.
Cell Line COR-L23 has a relative viability of 0.561.
COR-L 105 was tested, and the relative viability was 0.477.
Work on LOU-NH91 yielded a relative viability of 0.61.
For ChaGo-K-1, the relative viability was 0.616.
NCI-H2170 gave a relative viability of 0.56.
For NCI-H2405, the relative viability was 0.216.
With HOP-62 the relative viability was 0.672.
With SW 900 the relative viability was 0.768.
In the case of LU99A, the relative viability is reported as 0.584.
In the case of HCC-78, the relative viability is reported as 0.392.
Cell Line NCI-H1792 has a relative viability of 0.836.
NCI-H1563 showed a relative viability of 0.503.

Same assay, conditions: first compound 0.007906 µM
NCI-H522 was tested, and the relative viability was 0.97.
NCI-H1623 gave a relative viability of 0.513.
NCI-H727 was tested, and the relative viability was 0.416.
Cell Line NCI-H1650 has a relative viability of 0.362.
Cell Line NCI-H1993 has a relative viability of 0.497.
SW 1573 showed a relative viability of 0.681.
Work on NCI-H838 yielded a relative viability of 0.322.
With LCLC-103H the relative viability was 0.493.
Work on NCI-H520 yielded a relative viability of 0.194.
Work on NCI-H2126 yielded a relative viability of 0.591.
EMC-BAC-2 showed a relative viability of 0.364.
For NCI-H2085, the relative viability was 0.264.
HCC-366 was tested, and the relative viability was 0.813.
NCI-H1666 was tested, and the relative viability was 0.88.
In the case of NCI-H596, the relative viability is reported as 0.619.
With LK-2 the relative viability was 0.296.
For NCI-H2087, the relative viability was 0.924.
Work on NCI-H2342 yielded a relative viability of 0.348.
SK-MES-1 showed a relative viability of 0.367.
Cell Line H3255 has a relative viability of 0.319.
COR-L23 was tested, and the relative viability was 0.533.
Work on COR-L 105 yielded a relative viability of 0.298.
LOU-NH91 gave a relative viability of 0.588.
ChaGo-K-1 gave a relative viability of 0.605.
In the case of NCI-H2170, the relative viability is reported as 0.592.
With NCI-H2405 the relative viability was 0.223.
HOP-62 showed a relative viability of 0.852.
Work on SW 900 yielded a relative viability of 0.696.
With LU99A the relative viability was 0.502.
For HCC-78, the relative viability was 0.486.
For NCI-H1792, the relative viability was 0.947.
In the case of NCI-H1563, the relative viability is reported as 0.439.

Same assay, conditions: first compound 0.025 µM
With NCI-H522 the relative viability was 0.763.
NCI-H1623 was tested, and the relative viability was 0.549.
NCI-H727 gave a relative viability of 0.501.
In the case of NCI-H1650, the relative viability is reported as 0.287.
In the case of NCI-H1993, the relative viability is reported as 0.572.
In the case of SW 1573, the relative viability is reported as 0.402.
NCI-H838 was tested, and the relative viability was 0.276.
Cell Line LCLC-103H has a relative viability of 0.489.
With NCI-H520 the relative viability was 0.161.
In the case of NCI-H2126, the relative viability is reported as 0.659.
Work on EMC-BAC-2 yielded a relative viability of 0.326.
NCI-H2085 gave a relative viability of 0.26.
Cell Line HCC-366 has a relative viability of 0.836.
Work on NCI-H1666 yielded a relative viability of 0.776.
In the case of NCI-H596, the relative viability is reported as 0.658.
LK-2 showed a relative viability of 0.308.
NCI-H2087 gave a relative viability of 0.844.
